In the CheMixHub viscosity set:
± gives the uncertainty stated by the source.

Assay: xn = mol fraction of the nth substance listed

CC(C)=O + c1ccccc1
Settings | viscosity [mPa·s]
293.15 K, 101 kPa, x1 = 0.086 | 0.598 ± 0.012
293.15 K, 101 kPa, x1 = 0.1 | 0.592 ± 0.012
293.15 K, 101 kPa, x1 = 0.1304 | 0.581 ± 0.015
293.15 K, 101 kPa, x1 = 0.248 | 0.535 ± 0.011
293.15 K, 101 kPa, x1 = 0.269 | 0.528 ± 0.011
293.15 K, 101 kPa, x1 = 0.287 | 0.513 ± 0.013
293.15 K, 101 kPa, x1 = 0.4005 | 0.47 ± 0.012
293.15 K, 101 kPa, x1 = 0.408 | 0.471 ± 0.01
293.15 K, 101 kPa, x1 = 0.5661 | 0.416 ± 0.011
293.15 K, 101 kPa, x1 = 0.587 | 0.414 ± 0.009
293.15 K, 101 kPa, x1 = 0.6783 | 0.385 ± 0.01
293.15 K, 101 kPa, x1 = 0.767 | 0.376 ± 0.008
293.15 K, 101 kPa, x1 = 0.7899 | 0.357 ± 0.009
293.15 K, 101 kPa, x1 = 0.864 | 0.362 ± 0.008
293.15 K, 101 kPa, x1 = 0.9053 | 0.332 ± 0.009
293.16 K, 101 kPa, x1 = 0.1304 | 0.581 ± 0.016
293.16 K, 101 kPa, x1 = 0.287 | 0.513 ± 0.014
293.16 K, 101 kPa, x1 = 0.4005 | 0.47 ± 0.013
293.16 K, 101 kPa, x1 = 0.5661 | 0.416 ± 0.011
293.16 K, 101 kPa, x1 = 0.6783 | 0.385 ± 0.01
293.16 K, 101 kPa, x1 = 0.7899 | 0.357 ± 0.01
293.16 K, 101 kPa, x1 = 0.9053 | 0.332 ± 0.009
298.15 K, 101 kPa, x1 = 0.092 | 0.5569 ± 0.0057
298.15 K, 101 kPa, x1 = 0.1304 | 0.534 ± 0.014
298.15 K, 101 kPa, x1 = 0.1895 | 0.5185 ± 0.0053
298.15 K, 101 kPa, x1 = 0.2364 | 0.4968 ± 0.0051
298.15 K, 101 kPa, x1 = 0.287 | 0.484 ± 0.013
298.15 K, 101 kPa, x1 = 0.2986 | 0.4766 ± 0.005
298.15 K, 101 kPa, x1 = 0.3321 | 0.4654 ± 0.0049
298.15 K, 101 kPa, x1 = 0.4005 | 0.446 ± 0.012
298.15 K, 101 kPa, x1 = 0.4076 | 0.4368 ± 0.0046
298.15 K, 101 kPa, x1 = 0.4692 | 0.4188 ± 0.0045
298.15 K, 101 kPa, x1 = 0.49 | 0.4158 ± 0.0044
298.15 K, 101 kPa, x1 = 0.5552 | 0.3985 ± 0.0043
298.15 K, 101 kPa, x1 = 0.5608 | 0.3975 ± 0.0043
298.15 K, 101 kPa, x1 = 0.5661 | 0.401 ± 0.01
298.15 K, 101 kPa, x1 = 0.6629 | 0.3692 ± 0.004
298.15 K, 101 kPa, x1 = 0.6783 | 0.375 ± 0.01
298.15 K, 101 kPa, x1 = 0.7262 | 0.3546 ± 0.0039
298.15 K, 101 kPa, x1 = 0.7691 | 0.3451 ± 0.0038
298.15 K, 101 kPa, x1 = 0.7899 | 0.351 ± 0.009
298.15 K, 101 kPa, x1 = 0.808 | 0.3384 ± 0.0038
298.15 K, 101 kPa, x1 = 0.8946 | 0.3203 ± 0.0036
298.15 K, 101 kPa, x1 = 0.9053 | 0.33 ± 0.009
298.16 K, 101 kPa, x1 = 0.1304 | 0.534 ± 0.014
298.16 K, 101 kPa, x1 = 0.287 | 0.484 ± 0.013
298.16 K, 101 kPa, x1 = 0.4005 | 0.446 ± 0.012
298.16 K, 101 kPa, x1 = 0.5661 | 0.401 ± 0.011
298.16 K, 101 kPa, x1 = 0.6783 | 0.375 ± 0.01
298.16 K, 101 kPa, x1 = 0.7899 | 0.351 ± 0.009
298.16 K, 101 kPa, x1 = 0.9053 | 0.33 ± 0.009
303.15 K, 101 kPa, x1 = 0.086 | 0.523 ± 0.011
303.15 K, 101 kPa, x1 = 0.1 | 0.518 ± 0.011
303.15 K, 101 kPa, x1 = 0.248 | 0.475 ± 0.01
303.15 K, 101 kPa, x1 = 0.269 | 0.469 ± 0.01
303.15 K, 101 kPa, x1 = 0.2875 | 0.456 ± 0.012
303.15 K, 101 kPa, x1 = 0.408 | 0.423 ± 0.009
303.15 K, 101 kPa, x1 = 0.4185 | 0.417 ± 0.011
303.15 K, 101 kPa, x1 = 0.5098 | 0.392 ± 0.01
303.15 K, 101 kPa, x1 = 0.5498 | 0.382 ± 0.01
303.15 K, 101 kPa, x1 = 0.587 | 0.375 ± 0.008
303.15 K, 101 kPa, x1 = 0.6652 | 0.356 ± 0.009
303.15 K, 101 kPa, x1 = 0.767 | 0.346 ± 0.008
303.15 K, 101 kPa, x1 = 0.7851 | 0.331 ± 0.009
303.15 K, 101 kPa, x1 = 0.864 | 0.332 ± 0.007
303.15 K, 101 kPa, x1 = 0.8895 | 0.312 ± 0.008
303.16 K, 101 kPa, x1 = 0.2875 | 0.456 ± 0.012
303.16 K, 101 kPa, x1 = 0.4185 | 0.417 ± 0.011
303.16 K, 101 kPa, x1 = 0.5098 | 0.392 ± 0.011
303.16 K, 101 kPa, x1 = 0.5498 | 0.382 ± 0.01
303.16 K, 101 kPa, x1 = 0.6652 | 0.356 ± 0.01
303.16 K, 101 kPa, x1 = 0.7851 | 0.331 ± 0.009
303.16 K, 101 kPa, x1 = 0.8895 | 0.312 ± 0.008
307.35 K, 101.33 kPa, x1 = 0.1115 | 0.492 ± 0.0092
307.35 K, 101.33 kPa, x1 = 0.3573 | 0.419 ± 0.0086
307.35 K, 101.33 kPa, x1 = 0.4938 | 0.382 ± 0.0083
307.35 K, 101.33 kPa, x1 = 0.5562 | 0.374 ± 0.0082
307.35 K, 101.33 kPa, x1 = 0.6464 | 0.352 ± 0.008
307.35 K, 101.33 kPa, x1 = 0.8853 | 0.308 ± 0.0077
313.15 K, 101 kPa, x1 = 0.086 | 0.464 ± 0.01
313.15 K, 101 kPa, x1 = 0.1 | 0.46 ± 0.01
313.15 K, 101 kPa, x1 = 0.248 | 0.424 ± 0.009
313.15 K, 101 kPa, x1 = 0.269 | 0.419 ± 0.009
313.15 K, 101 kPa, x1 = 0.408 | 0.378 ± 0.008
313.15 K, 101 kPa, x1 = 0.587 | 0.344 ± 0.008
313.15 K, 101 kPa, x1 = 0.767 | 0.32 ± 0.007
313.15 K, 101 kPa, x1 = 0.864 | 0.309 ± 0.007
323.15 K, 101 kPa, x1 = 0.086 | 0.436 ± 0.009
323.15 K, 101 kPa, x1 = 0.1 | 0.436 ± 0.009
323.15 K, 101 kPa, x1 = 0.248 | 0.404 ± 0.009
323.15 K, 101 kPa, x1 = 0.269 | 0.4 ± 0.009
323.15 K, 101 kPa, x1 = 0.408 | 0.361 ± 0.008
323.15 K, 101 kPa, x1 = 0.587 | 0.33 ± 0.007
323.15 K, 101 kPa, x1 = 0.767 | 0.309 ± 0.007
